Assays:
Caspase-1 = biological target: T1, Caspase-1 (Homo sapiens, UniProt P29466); parameters: species or system Escherichia coli;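 also: Caspase-1 enzyme inhibition assay with a peptide substrate; in other assays of this panel Not Active means under 50% inhibition at 10 µM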
T1 sequence (P29466 whole entry): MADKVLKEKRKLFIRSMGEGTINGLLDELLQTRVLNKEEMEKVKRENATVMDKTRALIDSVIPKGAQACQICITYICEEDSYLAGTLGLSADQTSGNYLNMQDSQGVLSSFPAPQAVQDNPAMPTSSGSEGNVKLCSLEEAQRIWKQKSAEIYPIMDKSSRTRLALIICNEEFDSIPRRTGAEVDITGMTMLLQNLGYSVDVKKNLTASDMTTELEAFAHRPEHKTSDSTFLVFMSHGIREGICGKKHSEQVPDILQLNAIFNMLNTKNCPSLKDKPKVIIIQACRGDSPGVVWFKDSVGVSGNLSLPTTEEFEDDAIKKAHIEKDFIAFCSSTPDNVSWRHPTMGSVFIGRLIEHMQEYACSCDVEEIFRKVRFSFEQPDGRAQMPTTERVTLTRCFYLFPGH

[1] = biological target: Protein kinase C alpha type (Homo sapiens, UniProt P17252); assay type: cell-based; conditions: sf9;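 also: inhibition of PKCalpha kinase activity measured in an enzyme assay with histone as the phosphorylation substrate; in other assays of this panel Not Active means under 50% inhibition at 10 µM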
[2] = biological target: T2, Muscarinic acetylcholine receptor M2 (Homo sapiens, UniProt P08172); assay type: cell membranes, CHO-K1, Membrane; conditions: cho-k1; also: in other assays of this panel Not Active means under 50% inhibition at 10 µM
T2 sequence (P08172 whole entry): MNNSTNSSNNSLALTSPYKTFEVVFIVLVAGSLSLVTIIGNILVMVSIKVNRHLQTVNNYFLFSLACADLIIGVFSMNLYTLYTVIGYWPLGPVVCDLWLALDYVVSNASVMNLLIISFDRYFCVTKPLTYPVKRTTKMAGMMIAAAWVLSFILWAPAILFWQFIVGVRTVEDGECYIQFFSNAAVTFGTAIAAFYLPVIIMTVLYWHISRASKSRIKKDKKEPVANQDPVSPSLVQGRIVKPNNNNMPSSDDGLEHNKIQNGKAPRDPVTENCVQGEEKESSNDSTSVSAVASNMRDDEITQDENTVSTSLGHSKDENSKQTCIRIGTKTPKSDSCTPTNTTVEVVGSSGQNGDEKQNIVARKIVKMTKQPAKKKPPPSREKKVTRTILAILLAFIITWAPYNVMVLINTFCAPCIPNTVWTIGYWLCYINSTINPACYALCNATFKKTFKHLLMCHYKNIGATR

Cytochrome P450 1A2 = biological target: T3, Cytochrome P450 1A2 (Homo sapiens, UniProt P05177); conditions: bti-tn-5b1-4; also: in other assays of this panel Not Active means under 50% inhibition at 10 µM
T3 sequence (P05177 whole entry): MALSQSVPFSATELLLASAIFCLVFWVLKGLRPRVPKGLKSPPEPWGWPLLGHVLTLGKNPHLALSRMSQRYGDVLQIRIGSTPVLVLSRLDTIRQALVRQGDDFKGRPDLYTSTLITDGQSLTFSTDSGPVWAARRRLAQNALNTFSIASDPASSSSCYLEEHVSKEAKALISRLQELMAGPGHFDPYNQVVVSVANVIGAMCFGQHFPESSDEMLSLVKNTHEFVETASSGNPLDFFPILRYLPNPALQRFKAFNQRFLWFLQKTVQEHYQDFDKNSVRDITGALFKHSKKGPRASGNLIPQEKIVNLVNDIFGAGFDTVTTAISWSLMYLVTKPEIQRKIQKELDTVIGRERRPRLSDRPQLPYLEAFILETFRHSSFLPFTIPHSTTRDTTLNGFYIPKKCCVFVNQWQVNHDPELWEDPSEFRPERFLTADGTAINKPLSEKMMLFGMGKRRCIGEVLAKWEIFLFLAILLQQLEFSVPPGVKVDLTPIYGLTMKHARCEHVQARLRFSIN

[3] = biological target: 5-hydroxytryptamine receptor 4 (Cavia porcellus, UniProt O70528); assay type: cell membranes, Dunkin-Hartley, Striatum, Membrane; also: in other assays of this panel Not Active means under 50% inhibition at 10 µM
[4] = biological target: T4, Amine oxidase [flavin-containing] A (Homo sapiens, UniProt P21397); assay: DRUGMATRIX: Monoamine Oxidase MAO-A enzyme inhibition (substrate: Kynuramine); parameters: species or system BTI-TN-5B1-4; conditions: bti-tn-5b1-4; Not Active = under 50% inhibition at 10 µM
T4 sequence (P21397 whole entry): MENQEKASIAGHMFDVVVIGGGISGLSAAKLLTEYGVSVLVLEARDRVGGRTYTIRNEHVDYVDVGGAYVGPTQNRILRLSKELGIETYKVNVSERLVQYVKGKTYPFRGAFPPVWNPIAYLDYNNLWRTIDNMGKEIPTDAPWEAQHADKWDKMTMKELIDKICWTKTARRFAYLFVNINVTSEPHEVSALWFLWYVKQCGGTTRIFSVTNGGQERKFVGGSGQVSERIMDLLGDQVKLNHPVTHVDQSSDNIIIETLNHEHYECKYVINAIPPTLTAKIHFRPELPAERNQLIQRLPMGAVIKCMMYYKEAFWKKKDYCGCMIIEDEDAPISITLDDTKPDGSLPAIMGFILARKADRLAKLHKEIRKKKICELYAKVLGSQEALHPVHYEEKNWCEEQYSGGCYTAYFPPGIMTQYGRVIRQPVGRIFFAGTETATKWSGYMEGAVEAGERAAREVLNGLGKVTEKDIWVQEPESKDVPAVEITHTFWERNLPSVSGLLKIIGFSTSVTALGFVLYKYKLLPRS

5-hydroxytryptamine receptor 4, sequence (O70528 whole entry): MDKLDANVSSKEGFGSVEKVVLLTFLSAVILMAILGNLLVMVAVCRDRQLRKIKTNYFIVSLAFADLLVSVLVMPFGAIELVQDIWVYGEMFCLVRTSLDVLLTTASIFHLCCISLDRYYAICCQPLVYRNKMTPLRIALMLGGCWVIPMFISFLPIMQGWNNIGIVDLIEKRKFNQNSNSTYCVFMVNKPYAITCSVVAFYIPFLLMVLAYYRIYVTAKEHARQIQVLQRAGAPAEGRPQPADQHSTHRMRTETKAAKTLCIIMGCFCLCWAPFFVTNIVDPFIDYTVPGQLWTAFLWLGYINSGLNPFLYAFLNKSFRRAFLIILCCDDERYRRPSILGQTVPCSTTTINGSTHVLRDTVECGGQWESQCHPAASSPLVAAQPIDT

CC(C)(C)NC(=O)[C@H]1CC[C@H]2[C@@H]3CC[C@H]4NC(=O)C=C[C@]4(C)[C@H]3CC[C@]12C [FINASTERIDE]
Not Active: IC50 (Caspase-1) | IC50 [1] | IC50 [2] | IC50 (Cytochrome P450 1A2) | Ki (Cytochrome P450 1A2) | IC50 [3] | IC50 [4]

CC(C)NNC(=O)c1ccncc1 [IPRONIAZID]
Not Active: IC50 (Caspase-1) | IC50 [1] | IC50 [2] | IC50 (Cytochrome P450 1A2) | Ki (Cytochrome P450 1A2) | IC50 [3] | IC50 [4]

GRAMICIDIN
Not Active: IC50 (Caspase-1) | Ki (Caspase-1) | IC50 [1] | Ki [1] | IC50 [2] | Ki [2] | IC50 (Cytochrome P450 1A2) | Ki (Cytochrome P450 1A2) | IC50 [3] | Ki [3] | IC50 [4] | Ki [4]

O=C(N/N=C/c1ccc([N+](=O)[O-])o1)c1cc([N+](=O)[O-])cc([N+](=O)[O-])c1O [NIFURSOL]
Not Active: IC50 (Caspase-1) | IC50 [1] | IC50 [2] | IC50 (Cytochrome P450 1A2) | Ki (Cytochrome P450 1A2) | IC50 [3] | IC50 [4]

Oc1cccc(O)c1O [PYROGALLOL]
Not Active: IC50 (Caspase-1) | IC50 [1] | IC50 [2] | IC50 (Cytochrome P450 1A2) | Ki (Cytochrome P450 1A2) | IC50 [3] | IC50 [4]

COc1cc2nc(N3CCN(C(=O)c4ccco4)CC3)nc(N)c2cc1OC [PRAZOSIN]
Not Active: IC50 (Caspase-1) | IC50 [1] | IC50 [2] | IC50 (Cytochrome P450 1A2) | Ki (Cytochrome P450 1A2) | IC50 [3] | IC50 [4]

NNc1nncc2ccccc12 [HYDRALAZINE]
Not Active: IC50 (Caspase-1) | IC50 [1] | IC50 [2] | IC50 (Cytochrome P450 1A2) | Ki (Cytochrome P450 1A2) | IC50 [3] | IC50 [4]

C[C@]12C=CC(=O)C=C1CC[C@@H]1[C@@H]2[C@@H](O)C[C@@]2(C)[C@H]1CC[C@]2(O)C(=O)CO [PREDNISOLONE]
Not Active: IC50 (Caspase-1) | IC50 [1] | IC50 [2] | IC50 (Cytochrome P450 1A2) | Ki (Cytochrome P450 1A2) | IC50 [3] | IC50 [4]

O=C1O[C@H]([C@@H](O)CO)C(O)=C1O [ASCORBIC ACID]
Not Active: IC50 (Caspase-1) | IC50 [1] | IC50 [2] | IC50 (Cytochrome P450 1A2) | Ki (Cytochrome P450 1A2) | IC50 [3] | IC50 [4]

C[n+]1ccccc1/C=N/O.[Cl-] [PRALIDOXIME CHLORIDE]
Not Active: IC50 (Caspase-1) | IC50 [1] | IC50 [2] | IC50 (Cytochrome P450 1A2) | Ki (Cytochrome P450 1A2) | Ki [3] | IC50 [4]

COC1=C(OC)C(=O)C(CCCCCCCCCCO)=C(C)C1=O [IDEBENONE]
Not Active: IC50 (Caspase-1) | IC50 [1] | IC50 [2] | IC50 (Cytochrome P450 1A2) | Ki (Cytochrome P450 1A2) | IC50 [3] | IC50 [4]

From ChEMBL document CHEMBL1909046, “DrugMatrix in vitro pharmacology data”
